Laboratory results published in US20250082931A1, “Treating Gastric Cancer Using TTFields Combined with XELOX, FOLFOX or the Individual Constituents Thereof” (Novocure GmbH, priority 2019, published 2025).

Legend:
AGS cells [1] = test: Overall effect (cytotoxic effect x clonogenic effect); assay type: cell-based; conditions: for overall effect (colonies count multiplying the cytotoxic effect): 72 h
Procedure: (§1) After 6-14 days the colonies were fixed, stained and counted to determine clonogenic effect. The overall effect was calculated by multiplying the cytotoxic effect and the clonogenic effect.
(§2) Overall effect: Each colony number was multiply in the percent of cytotoxic effect of its dish and averages and standard deviations of each treatment were calculated in Excel software. […] Significant was determine by 2-way ANOVA followed Multiple comparison using GraphPed software.

KATO III cells [2] = test: Apoptosis analysis by Annexin V / 7AAD staining; assay type: cell-based; conditions: for AnnV+ 7AAD+ cell fraction / AnnV+ 7AAD− cell fraction / AnnV− 7AAD+ cell fraction / AnnV− 7AAD− cell fraction: 72 h
Procedure: After 72 h of treatment the media and the cells were collected, and cytotoxicity was determined by cell counts. Cells (including cells from the media) were stained for Annexin V and 7AAD for apoptosis analysis. For the testing of the clonogenic effect, cells were seeded for colonies.
(§3) Cells were seeded on inovitro dishes and petri dishes 24 h before starting the experiments. Media containing the indicated concentration of each chemotherapy component alone or FOLFOX and control media was added to the cells and the dishes were connected to TTFields (as in SOP-BI-009) or grown in 37° C., 5% CO2 for 72 h. Each treatment included 8 repeats (8 dishes). The media was replaced every 24 h. At the end of the experiment the cells were collected, and cytotoxicity was determined by cell counts, small number of cells were seeded for colonies and the cells (including cells from the media) were stained for Annexin V and 7AAD for apoptosis analysis.
Apoptotic effect: Average of cell fraction of each marker staining (Annexin V and 7AAD) of at least 5 dishes from each treatment was calculated in Excel software. The averages from these repeats was calculated to averages and is presented in stacked bar graph using GraphPed software.

KATO III cells [3] = test: Overall effect (cytotoxic effect x clonogenic effect); conditions: 72 h
Procedure: as §1, §2

AGS cells [4] = test: Cytotoxic effect by cell count after 72 h, with and without TTFields
Procedure: During the treatment the media of all dishes was replaced every 24 h (“hours”).
After 72 h of treatment the media and the cells were collected, and cytotoxicity was determined by cell counts.
as §3
A TTFields generator (Inovitro systems) was used to apply the treatment to the cells.
Cytotoxic effect: Average and standard deviation of cell number of at least 5 dishes from each treatment was calculated in Excel software. The averages from these repeats was calculated to averages and standard error and is presented as percent from control (no drug treatment) in XY graph of points with error bars using GraphPed software. Significant was determine by 2-way ANOVA followed Multiple comparison using GraphPed software.

[5] = 0.5 uM, + TTFields 150 kHz 1.0 V/cm
[6] = 1.5 uM, + TTFields 150 kHz 1.0 V/cm
[7] = 4.5 uM, + TTFields 150 kHz 1.0 V/cm
[8] = 13.5 uM, + TTFields 150 kHz 1.0 V/cm
[9] = 40 uM, + TTFields 150 kHz 1.0 V/cm
[10] = FOLFOX experiment, 0.5 uM, + TTFields 150 kHz 1.0 V/cm
[11] = FOLFOX experiment, 0.5 uM, no TTFields
[12] = 1.5 nM, + TTFields 150 kHz 1.6 V/cm
[13] = 4.5 nM, + TTFields 150 kHz 1.6 V/cm
[14] = 13.5 nM, + TTFields 150 kHz 1.6 V/cm
[15] = 40 nM, + TTFields 150 kHz 1.6 V/cm
[16] = FOLFOX experiment, 1.5 uM, + TTFields 150 kHz 1.6 V/cm
[17] = FOLFOX experiment, 1.5 uM, no TTFields

O=c1[nH]cc(F)c(=O)[nH]1 [5-FU, 5-fluorouracil]
interaction with TTFields based on the overall effect (AGS cells [1]): synergistic | overall effect (colonies count multiplying the cytotoxic effect) (AGS cells [1]; [5]): 36 % from control | overall effect (colonies count multiplying the cytotoxic effect) (AGS cells [1]; 0.5 uM, no TTFields): 97 % from control | overall effect (colonies count multiplying the cytotoxic effect) (AGS cells [1]; [6]): 30 % from control | overall effect (colonies count multiplying the cytotoxic effect) (AGS cells [1]; 1.5 uM, no TTFields): 81 % from control | overall effect (colonies count multiplying the cytotoxic effect) (AGS cells [1]; [7]): 11 % from control | overall effect (colonies count multiplying the cytotoxic effect) (AGS cells [1]; 4.5 uM, no TTFields): 50 % from control | overall effect (colonies count multiplying the cytotoxic effect) (AGS cells [1]; [8]): 2 % from control | overall effect (colonies count multiplying the cytotoxic effect) (AGS cells [1]; 13.5 uM, no TTFields): 2 % from control | overall effect (colonies count multiplying the cytotoxic effect) (AGS cells [1]; [9]): 0 % from control | overall effect (colonies count multiplying the cytotoxic effect) (AGS cells [1]; 40 uM, no TTFields): 0 % from control | overall effect (colonies count multiplying the cytotoxic effect) (AGS cells [1]; [10]): 36 % from control | overall effect (colonies count multiplying the cytotoxic effect) (AGS cells [1]; [11]): 87 % from control | elevation in percent of cells that undergo apoptosis, drug + TTFields compared to drug alone (KATO III cells [2]): higher | AnnV+ 7AAD+ cell fraction (KATO III cells [2]; [12]): 19.12% | AnnV+ 7AAD− cell fraction (KATO III cells [2]; [12]): 17.49% | AnnV− 7AAD+ cell fraction (KATO III cells [2]; [12]): 2.24% | AnnV− 7AAD− cell fraction (KATO III cells [2]; [12]): 61.16% | AnnV+ 7AAD+ cell fraction (KATO III cells [2]; 1.5 nM, no TTFields): 11.98% | AnnV+ 7AAD− cell fraction (KATO III cells [2]; 1.5 nM, no TTFields): 11.44% | AnnV− 7AAD+ cell fraction (KATO III cells [2]; 1.5 nM, no TTFields): 1.95% | AnnV− 7AAD− cell fraction (KATO III cells [2]; 1.5 nM, no TTFields): 74.64% | AnnV+ 7AAD+ cell fraction (KATO III cells [2]; [13]): 20.44% | AnnV+ 7AAD− cell fraction (KATO III cells [2]; [13]): 13.34% | AnnV− 7AAD+ cell fraction (KATO III cells [2]; [13]): 4.25% | AnnV− 7AAD− cell fraction (KATO III cells [2]; [13]): 61.98% | AnnV+ 7AAD+ cell fraction (KATO III cells [2]; 4.5 nM, no TTFields): 11.92% | AnnV+ 7AAD− cell fraction (KATO III cells [2]; 4.5 nM, no TTFields): 11.00% | AnnV− 7AAD+ cell fraction (KATO III cells [2]; 4.5 nM, no TTFields): 3.59% | AnnV− 7AAD− cell fraction (KATO III cells [2]; 4.5 nM, no TTFields): 73.50% | AnnV+ 7AAD+ cell fraction (KATO III cells [2]; [14]): 17.18% | AnnV+ 7AAD− cell fraction (KATO III cells [2]; [14]): 16.21% | AnnV− 7AAD+ cell fraction (KATO III cells [2]; [14]): 2.01% | AnnV− 7AAD− cell fraction (KATO III cells [2]; [14]): 64.61% | AnnV+ 7AAD+ cell fraction (KATO III cells [2]; 13.5 nM, no TTFields): 11.72% | AnnV+ 7AAD− cell fraction (KATO III cells [2]; 13.5 nM, no TTFields): 12.44% | AnnV− 7AAD+ cell fraction (KATO III cells [2]; 13.5 nM, no TTFields): 2.22% | AnnV− 7AAD− cell fraction (KATO III cells [2]; 13.5 nM, no TTFields): 73.64% | AnnV+ 7AAD+ cell fraction (KATO III cells [2]; [15]): 21.25% | AnnV+ 7AAD− cell fraction (KATO III cells [2]; [15]): 11.40% | AnnV− 7AAD+ cell fraction (KATO III cells [2]; [15]): 3.58% | AnnV− 7AAD− cell fraction (KATO III cells [2]; [15]): 63.76% | AnnV+ 7AAD+ cell fraction (KATO III cells [2]; 40 nM, no TTFields): 12.48% | AnnV+ 7AAD− cell fraction (KATO III cells [2]; 40 nM, no TTFields): 10.55% | AnnV− 7AAD+ cell fraction (KATO III cells [2]; 40 nM, no TTFields): 3.42% | AnnV− 7AAD− cell fraction (KATO III cells [2]; 40 nM, no TTFields): 73.55% | AnnV+ 7AAD+ cell fraction (KATO III cells [2]; [16]): 32.59% | AnnV+ 7AAD− cell fraction (KATO III cells [2]; [16]): 16.09% | AnnV− 7AAD+ cell fraction (KATO III cells [2]; [16]): 1.39% | AnnV− 7AAD− cell fraction (KATO III cells [2]; [16]): 49.94% | AnnV+ 7AAD+ cell fraction (KATO III cells [2]; [17]): 22.22% | AnnV+ 7AAD− cell fraction (KATO III cells [2]; [17]): 11.36% | AnnV− 7AAD+ cell fraction (KATO III cells [2]; [17]): 0.96% | AnnV− 7AAD− cell fraction (KATO III cells [2]; [17]): 65.47% | overall effect (colonies count multiplying the cytotoxic effect) (KATO III cells [3]; 1.5 uM, + TTFields 150 kHz 1.6 V/cm): 24 % from control | overall effect (colonies count multiplying the cytotoxic effect) (KATO III cells [3]; 1.5 uM, no TTFields): 58 % from control | overall effect (colonies count multiplying the cytotoxic effect) (KATO III cells [3]; 4.5 uM, + TTFields 150 kHz 1.6 V/cm): 18 % from control | overall effect (colonies count multiplying the cytotoxic effect) (KATO III cells [3]; 4.5 uM, no TTFields): 34 % from control | overall effect (colonies count multiplying the cytotoxic effect) (KATO III cells [3]; 13.5 uM, + TTFields 150 kHz 1.6 V/cm): 3 % from control | overall effect (colonies count multiplying the cytotoxic effect) (KATO III cells [3]; 13.5 uM, no TTFields): 4 % from control | overall effect (colonies count multiplying the cytotoxic effect) (KATO III cells [3]; 40 uM, + TTFields 150 kHz 1.6 V/cm): 0 % from control | overall effect (colonies count multiplying the cytotoxic effect) (KATO III cells [3]; 40 uM, no TTFields): 0 % from control | cell count (AGS cells [4]; [5]): 61 % from control | cell count (AGS cells [4]; 0.5 uM, no TTFields): 90 % from control | cell count (AGS cells [4]; [6]): 47 % from control | cell count (AGS cells [4]; 1.5 uM, no TTFields): 83 % from control | cell count (AGS cells [4]; [7]): 27 % from control | cell count (AGS cells [4]; 4.5 uM, no TTFields): 52 % from control | cell count (AGS cells [4]; [8]): 15 % from control | cell count (AGS cells [4]; 13.5 uM, no TTFields): 24 % from control | cell count (AGS cells [4]; [9]): 19 % from control | cell count (AGS cells [4]; 40 uM, no TTFields): 25 % from control | cell count (AGS cells [4]; [10]): 61 % from control | cell count (AGS cells [4]; [11]): 79 % from control
